We go through 2 molecules from paper PMC2680961, “Homologous desensitization of signalling by the alpha (α) isoform of the human thromboxane A2 receptor: A specific role for nitric oxide signalling” (Biochimica et Biophysica Acta, 2007).

Numbering of substitutions follows the chain as printed.

The target of one assay is T1, TPα^WT (Homo sapiens, UniProt P21731).
T1 construct: expressed in transfected cells
Kind of assay: [3H]SQ29,548 radioligand binding, Scatchard analysis, HEK.TPα^WT. As for the experimental part: Cells were harvested by centrifugation at 500×g at 4 °C for 5 min and washed three times with ice-cold Ca^2+/Mg^2+-free phosphate-buffered saline (PBS). TP radioligand binding assays were carried out at 30 °C for 30 min in 100 μl reactions in the presence of 0–40 nM [^3H] […] Protein determinations were carried out using the Bradford assay.
Radioligand binding and Scatchard analysis data were analysed using GraphPad Prisim V4.0 programme (GraphPad Software Inc., San Diego CA, USA). Statistical analyses were carried out using the unpaired Student's t test using the Statworks Analysis Package. p-values ≤ 0.01 indicated statistically significant differences.

Another assay addresses T2, TPα^S331,T337A (Homo sapiens, UniProt P21731, S331A/T337A).
T2 construct: expressed in transfected cells
T2 sequence (P21731 1-343 S331A/T337A): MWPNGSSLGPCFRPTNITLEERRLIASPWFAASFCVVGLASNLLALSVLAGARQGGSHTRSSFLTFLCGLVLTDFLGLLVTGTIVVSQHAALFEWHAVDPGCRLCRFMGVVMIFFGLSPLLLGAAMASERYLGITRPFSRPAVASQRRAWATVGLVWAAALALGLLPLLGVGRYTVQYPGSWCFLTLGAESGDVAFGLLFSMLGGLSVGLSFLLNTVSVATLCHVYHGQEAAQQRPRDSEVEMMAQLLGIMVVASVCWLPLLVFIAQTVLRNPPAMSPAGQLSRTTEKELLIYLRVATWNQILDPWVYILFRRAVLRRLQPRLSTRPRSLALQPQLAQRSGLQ
Kind of assay: Intracellular calcium mobilization, HEK.TPα^S331,T337A cells. In kind it is cell-based. The conditions noted are these: for Δ[Ca2+]i, U46619-induced: HEK.TPα^S331,T337A. As for the experimental part: (§1) Measurement of intracellular calcium mobilization ([Ca^2+]i) in FURA2/AM preloaded HEK 293 cell lines (2 × 10^6 cells/dish), each transiently co-transfected with pADVA (10 μg), and pCMV:Gαq (25 μg), was carried out as previously described. To investigate the effect of GRK2/βARK1 on TP-mediated [Ca^2+]i mobilization, HEK.TPα or HEK.TPβ cells (2 × 10^6 cells/dish) were co-transfected with pADVA (10 μg), pCMV:Gαq (25 μg) along with pRK5:βARK1^495–689 (25 μg), encoding a dominant negative form of GRK2/βARK1[39]. Approximately 48 h post-transfection, cells were harvested by scraping, washed twice in ice-cold PBS and resuspended in HBSSHB (modified Ca^2+/Mg^2+-free Hank's buffered salt solution, containing 10 μM HEPES, pH 7.67, 0.1% bovine serum albumin (BSA)) buffer at 10^7 cells/ml and incubated in the dark with 5 μM FURA2/AM for 45 min at 37 °C. […] For each measurement of [Ca^2+]i mobilization, aliquots of cells were diluted to 0.825 × 10^6 cells/ml in HBSSHB, 1 mM CaCl2 and FURA2 fluorescence was recorded (2 ml aliquots of cells) at 37^ °C with gentle stirring with a Perkin Elmer-Cetus LS50-B spectrofluorometer at excitation wavelengths of 340 nm and 380 nm and emission wavelength of 510 nm, respectively.
(§2) Cells were stimulated with the TP agonist U46619 (1 μM) and changes in [Ca^2+]i mobilization were monitored as a function of time. To assess agonist-mediated homologous desensitization, cells (0.825 × 10^6 cells/ml; 2 ml per assay) were stimulated with 1 μM U46619 (Primary stimulation) or, as a control, with the vehicle for 4 min; thereafter, cells were collected by centrifugation (900×g, 5 min); were washed twice in 2 ml HBSSHB, 1 mM CaCl2; and finally resuspended in 2 ml HBSSHB,1 mM CaCl2 and were left to recover over various time intervals (ranging from 0 to 60 min); thereafter, cells re-stimulated with 1 μM U46619 (Secondary stimulation) and changes in [Ca^2+]i mobilization were monitored as a function of time. […]

The subject of the next assay is TPα^S145,S331,T337A. Kind of assay: Intracellular calcium mobilization, HEK.TPα^S145,S331,T337A cells. It counts as cell-based, human. The conditions noted are these: data not shown. As for the experimental part:
as §1, with “GRK2/βARK1[39].” for “GRK2/βARK1[39]. Approximately 48 h post-transfection, cells were harvested by scraping, washed twice in ice-cold PBS and resuspended in HBSSHB (modified Ca^2+/Mg^2+-free Hank's buffered salt solution, containing 10 μM HEPES, pH 7.67, 0.1% bovine serum albumin (BSA)) buffer at 10^7 cells/ml and incubated in the dark with 5 μM FURA2/AM for 45 min at 37 °C.”
Cells were stimulated with the TP agonist U46619 (1 μM) and changes in [Ca^2+]i mobilization were monitored as a function of time. […]
The vehicle had no effect on U46619-mediated [Ca^2+]i mobilization. Calibration of the signal was performed in each sample by adding 0.2% Triton X-100 to obtain the maximal fluorescence ratio (Rmax) and then 1 mM EGTA to obtain the minimal fluorescence ratio (Rmin). […]

Another assay concerns the target T3, TPα^S239A (Homo sapiens, UniProt P21731, S239A).
T3 construct: expressed in transfected cells
T3 sequence (P21731 1-343 S239A): T2 sequence (P21731 1-343 S331A/T337A) with S239A, A331S, A337T
In words: Intracellular calcium mobilization, HEK.TPα^S239A cells. In kind it is cell-based. As for the experimental part:
Measurement of intracellular calcium mobilization ([Ca^2+]i) in FURA2/AM preloaded HEK 293 cell lines (2 × 10^6 cells/dish), each transiently co-transfected with pADVA (10 μg), and pCMV:Gαq (25 μg), was carried out as previously described. To investigate the effect of GRK2/βARK1 on TP-mediated [Ca^2+]i mobilization, HEK.TPα or HEK.TPβ cells (2 × 10^6 cells/dish) were co-transfected with pADVA (10 μg), pCMV:Gαq (25 μg) along with pRK5:βARK1^495–689 (25 μg), encoding a dominant negative form of GRK2/βARK1[39]. Approximately 48 h post-transfection, cells were harvested by scraping, washed twice in ice-cold PBS and resuspended in HBSSHB (modified Ca^2+/Mg^2+-free Hank's buffered salt solution, containing […], pH 7.67, 0.1% bovine serum albumin (BSA)) buffer at 10^7 cells/ml and incubated in the dark with 5 μM FURA2/AM for 45 min at 37 °C. Cells were collected by centrifugation (900×g, 5 min), washed once in an equal volume of HBSSHB, and were finally resuspended in HBSSHB buffer at 10^7 cells/ml and kept at room temperature in the dark for 40 min. For each measurement of [Ca^2+]i mobilization, aliquots of cells were diluted to 0.825 × 10^6 cells/ml in HBSSHB, 1 mM CaCl2 and FURA2 fluorescence was recorded (2 ml aliquots of cells) at 37^ °C with gentle stirring with a Perkin Elmer-Cetus LS50-B spectrofluorometer at excitation wavelengths of 340 nm and 380 nm and emission wavelength of 510 nm, respectively.
as §2
The vehicle had no effect on U46619-mediated [Ca^2+]i mobilization. Calibration of the signal was performed in each sample by adding 0.2% Triton X-100 to obtain the maximal fluorescence ratio (Rmax) and then 1 mM EGTA to obtain the minimal fluorescence ratio (Rmin). […] Changes in [Ca^2+]i mobilization were determined by measuring peak rises in [Ca^2+]i mobilized (Δ[Ca^2+]i) and were calculated as mean changes in Δ[Ca^2+]i ± S.E.M. (nM).

T1 sequence (P21731 whole entry): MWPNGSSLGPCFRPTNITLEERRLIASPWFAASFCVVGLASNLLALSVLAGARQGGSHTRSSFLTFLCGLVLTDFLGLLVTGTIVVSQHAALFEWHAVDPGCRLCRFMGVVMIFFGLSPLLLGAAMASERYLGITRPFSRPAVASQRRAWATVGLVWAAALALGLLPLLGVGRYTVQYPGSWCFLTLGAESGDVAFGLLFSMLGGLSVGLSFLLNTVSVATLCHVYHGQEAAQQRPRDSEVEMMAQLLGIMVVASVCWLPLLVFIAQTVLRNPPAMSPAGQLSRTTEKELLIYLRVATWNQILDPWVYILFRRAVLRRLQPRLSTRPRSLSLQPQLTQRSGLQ

Turning to `O=C(O)CCC/C=C\C[C@@H]1[C@H](CNNC(=O)Nc2ccccc2)[C@H]2CC[C@@H]1O2` [SQ29,548], the “Bmax (pmol/mg protein ± S.E.M.)” value at TPα^WT was 4.52 ± 0.05 pmol/mg protein.
With `CCCCC[C@H](O)/C=C/[C@@H]1[C@@H](C/C=C\CCCC(=O)O)[C@H]2CO[C@@H]1C2` [U46619], the “Δ[Ca2+]i, U46619-induced” value is on record as 181 ± 6.5 nM on TPα^S331,T337A (primary 1 μM U46619 4 min); 60 ± 7.1 nM at TPα^S331,T337A (secondary 1 μM U46619 at 15 min); 180 ± 9 nM at TPα^S239A (+ GRK^DN, primary 1 μM U46619); 0 nM on TPα^S239A (+ GRK^DN, secondary 1 μM U46619 at 15 min); 176 ± 10.3 nM at TPα^S239A (− GRK^DN, primary 1 μM U46619); 0 nM at TPα^S239A (− GRK^DN, secondary 1 μM U46619 at 15 min). In addition, the “secondary U46619 [Ca2+]i response relative to primary response” value on TPα^S331,T337A (TPα^S331,T337A) came to 33%; with TPα^S145,S331,T337A, 55%.
